# Measured values reported in patent US4393047A, “Antibiotic cytophagin and a process for producing the same” (Microbiochemical Research Foundation, priority 1981, dated 1983).
# Key:
# [1] = system: Bacillus subtilis NRRL B-558; assay: Minimum growth inhibitory concentration, agar dilution method; type: cell-based; details: pH 7
# Description: (§1) **Determined by agar dilution method using a bouilon medium (pH:7).
# [2] = system: Bacillus subtilis PCI 219; assay: as above; type: cell-based; details: pH 7
# Description: as §1
# [3] = system: Candida albicans 3147; assay: as above; type: cell-based; details: pH 7
# Description: as §1
# [4] = system: Escherichia coli K-12; assay: as above; type: cell-based; details: pH 7
# Description: as §1
# [5] = system: Micrococcus lysodeikticus IFO 3333; assay: as above; type: cell-based; details: pH 7
# Description: as §1
# [6] = system: Mycobacterium smegmatis ATCC 607; assay: as above; type: cell-based; details: pH 7
# Description: as §1
# [7] = system: Pseudomonas aeruginosa A 3; assay: as above; type: cell-based; details: pH 7
# Description: as §1
# [8] = system: Sarcina lutea PCI 1001; assay: as above; type: cell-based; details: pH 7
# Description: as §1
# [9] = system: Staphylococcus aureus FDA 209P; assay: as above; type: cell-based; details: bouillon medium pH 7
# Description: as §1
# [10] = system: Staphylococcus aureus MS 8800; assay: as above; type: cell-based; details: Staphylococcus aureus MS 8800, resistant to penicillin, tetracyclin, streptomycin and erythromycin, pH 7
# Description: as §1
# [11] = system: Staphylococcus sp M-XX-0105; assay: as above; type: cell-based; details: Staphylococcus sp M-XX-0105, resistant to amikacin, tobramycin and DKB, pH 7
# Description: as §1
# [12] = system: various Gram-positive bacteria; assay: Activity against the growth of Gram-positive bacteria (Table 1); type: cell-based; details: qualitative, from Table 1
# Description: as §1
# [13] = system: mouse; assay: Acute toxicity in mouse; type: in vivo; details: ip., 200 mg/kg in DMSO/water, two groups of 3
# Description: The acute toxicity of cytophagin was determined by using mouse as test animals.
# [14] = Solubility in various solvents; type: physicochemical
substance,measurement,setting,value
cytophagin,MIC,[1],1.56 µg/mL
same,MIC,[2],1.56 µg/mL
same,MIC,[3],50 µg/mL
same,MIC,[4],> 100 µg/mL
same,MIC,[5],0.1 µg/mL
same,MIC,[6],> 100 µg/mL
same,MIC,[7],> 100 µg/mL
same,MIC,[8],0.1 µg/mL
same,MIC,[9],1.56 µg/mL
same,MIC,[10],1.56 µg/mL
same,MIC,[11],2.5 µg/mL
same,activity against the growth of various Gram-positive bacteria,[12],strongly active
same,acute toxicity (survival),[13],"All of them (two groups, each consisting of 3 mouse) survived"
same,Solubility,[14]; acetic acid,Readily soluble
same,Solubility,[14]; acetone,hardly soluble
same,Solubility,[14]; chloroform,hardly soluble
same,Solubility,[14]; dimethylsulfoxide,Readily soluble
same,Solubility,[14]; ethanol,substantially soluble
same,Solubility,[14]; ethyl acetate,hardly soluble
same,Solubility,[14]; ethyl ether,hardly soluble
same,Solubility,[14]; methanol,substantially soluble
same,Solubility,[14]; water,hardly soluble
